Values quoted from earlier work as cited in patent publication US8481060B2, “Melt-coated pharmaceutical composition with fast release” (Losan Pharma GmbH, priority 2008, dated 2013).

conditions: taste-masking compound (excipient)

HLB	Compound
−5	CCCCCCCCCCCCCCCC(=O)O [palmitinic acid]
−7	CCCCCCCCCCCCCCCCCCCC(=O)O [arachinic acid]
−6	CCCCCCCCCCCCCCCCC(=O)O [margaric acid]
−6	CCCCCCCCCCCCCCCCCCC(=O)O [nonadecane acid]

Compound	HLB
CCCCCCCCCCCCCCCCCC(=O)O [stearic acid]	−6
CCCCCCCCCCCCCCCCCCCCCC(=O)O [behenic acid]	−8
